# Measurements: US20140005163A1 (NOVARTIS AG, priority 2010, published 2014)
# Like-named read-outs stand apart in the source and are kept apart here.
# Tests used:
# [1] = test system: PKB Ser473 phosphorylation in Rat1-myr-HA-p110 beta cells; assay: Reverse protein array assay, PKB Ser473 phosphorylation in Rat1-myr-p110 beta cells; type: cell-based; details: 0.5 h, pAkt Ser473, 30 minutes incubation, read-out: p-PKB IC50
# In short: (§1)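 Lysates were arrayed at four dilutions, and phospho-PKB Ser473 was quantified by relative fluorescence signal. They came from Rat1-myr-HA-p110 alpha, beta or delta cells exposed for 30 min at 37 °C to an 8-point compound series with 0.2% DMSO constant.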
# PI3K alpha = molecular target: T1, PI3K alpha (Homo sapiens, UniProt P42336); assay: PI3K alpha kinase assay (Kinase-Glo luminescence); type: biochemical
# T1 construct: p85(iSH2) fusion partner (see partner chain) (N); His tag (C); made in house; host or cells: baculovirus; Tn5 (Trichoplusia ni) or TiniPro insect cells
# T1 sequence (P42336 with tags, fused parts or gaps limits assumed): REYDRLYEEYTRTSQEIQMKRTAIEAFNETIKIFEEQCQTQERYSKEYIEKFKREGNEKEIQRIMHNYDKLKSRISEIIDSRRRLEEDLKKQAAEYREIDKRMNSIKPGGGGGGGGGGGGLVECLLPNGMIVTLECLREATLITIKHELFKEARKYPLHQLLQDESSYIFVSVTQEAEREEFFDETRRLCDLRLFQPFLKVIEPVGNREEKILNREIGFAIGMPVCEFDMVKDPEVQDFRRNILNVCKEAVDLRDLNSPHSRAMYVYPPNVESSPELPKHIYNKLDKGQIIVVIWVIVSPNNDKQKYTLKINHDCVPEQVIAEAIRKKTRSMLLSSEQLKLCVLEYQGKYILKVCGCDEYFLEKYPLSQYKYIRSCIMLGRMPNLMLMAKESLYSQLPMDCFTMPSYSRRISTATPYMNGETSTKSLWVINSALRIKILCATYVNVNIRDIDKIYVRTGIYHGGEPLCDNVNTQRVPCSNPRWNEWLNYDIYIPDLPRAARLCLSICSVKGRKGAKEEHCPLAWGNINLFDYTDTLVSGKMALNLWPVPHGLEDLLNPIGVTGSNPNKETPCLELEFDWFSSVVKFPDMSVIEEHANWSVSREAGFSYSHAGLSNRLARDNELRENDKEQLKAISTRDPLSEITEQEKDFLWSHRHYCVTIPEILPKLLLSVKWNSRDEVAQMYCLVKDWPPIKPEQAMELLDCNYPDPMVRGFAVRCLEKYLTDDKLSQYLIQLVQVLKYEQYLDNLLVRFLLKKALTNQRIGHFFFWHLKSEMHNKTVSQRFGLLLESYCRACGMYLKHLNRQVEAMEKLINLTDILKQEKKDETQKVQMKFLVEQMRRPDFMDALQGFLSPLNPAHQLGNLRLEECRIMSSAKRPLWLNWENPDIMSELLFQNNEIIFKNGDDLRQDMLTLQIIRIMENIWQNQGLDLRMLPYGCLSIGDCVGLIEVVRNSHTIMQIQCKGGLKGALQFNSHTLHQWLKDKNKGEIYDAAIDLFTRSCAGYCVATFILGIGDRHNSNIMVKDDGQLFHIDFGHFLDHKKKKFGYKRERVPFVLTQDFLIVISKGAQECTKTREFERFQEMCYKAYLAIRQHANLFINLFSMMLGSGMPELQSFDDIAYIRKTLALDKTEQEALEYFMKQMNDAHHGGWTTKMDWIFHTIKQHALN
# In short: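 PI3Kα construct EMV B1075 (10 nM final) was preincubated with 10 μg/mL phosphatidylinositol in 10 mM Tris-HCl pH 7.5, 3 mM MgCl2, 50 mM NaCl, 0.05% CHAPS, 1 mM DTT. Reaction started with 1 μM ATP, 60 min at room temperature; remaining ATP measured by Kinase-Glo luminescence. IC50 from 4-parameter logistic fit of 8-point titrations.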
# [2] = test system: PKB Ser473 phosphorylation in Rat1-myr-HA-p110 delta cells; assay: Reverse protein array assay, PKB Ser473 phosphorylation in Rat1-myr-p110 delta cells; type: cell-based; details: read-out: p-PKB IC50
# In short: as §1
# Solubility at pH 6.8 = type: physicochemical
# In short: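 Solubility was measured at pH 6.8 following the cited Zhou et al. (2007) procedure.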
# [3] = pH 6.8, aqueous buffer, thermodynamic from solid, read-out: solubility
smiles,measurement,setting,value
"COc1ccc(-c2ccc3ncc4c(c3c2)n(-c2ccnn2C)c(=O)n4C)cc1OC [Example 1.3, 8-(3,4-Dimethoxy-phenyl)-3-methyl-1-(2-methyl-2H-pyrazol-3-yl)-1,3-dihydro-imidazo[4,5-c]quinolin-2-one]",IC50,[1],96 nM
same,IC50,PI3K alpha,14 nM
same,IC50,[2],140 nM
same,solubility,Solubility at pH 6.8; pH 6.8,2 µg/mL
"COc1ccc(-c2ccc3ncc4c(c3c2)n(-c2cn(C)nc2C)c(=O)n4C)cc1OC [Example 1.8, 8-(3,4-Dimethoxy-phenyl)-1-(1,3-dimethyl-1H-pyrazol-4-yl)-3-methyl-1,3-dihydro-imidazo[4,5-c]quinolin-2-one]",IC50,[1],8 nM
same,IC50,PI3K alpha,6 nM
same,IC50,[2],14 nM
same,solubility,Solubility at pH 6.8; [3],10 µg/mL
"COc1ccc(-c2ccc3ncc4c(c3c2)n(-c2cc(C)nn2C)c(=O)n4C)cn1 [Example 2.3, 1-(2,5-Dimethyl-2H-pyrazol-3-yl)-8-(6-methoxy-pyridin-3-yl)-3-methyl-1,3-dihydro-imidazo[4,5-c]quinolin-2-one]",IC50,[1],116 nM
same,IC50,PI3K alpha,30 nM
same,IC50,[2],240 nM
same,solubility,Solubility at pH 6.8; [3],7 µg/mL
"COc1ccc(-c2ccc3ncc4c(c3c2)n(-c2cn(C(C)C)nc2C)c(=O)n4C)cn1 [Example 2.8, 1-(1-Isopropyl-3-methyl-1H-pyrazol-4-yl)-8-(6-methoxy-pyridin-3-yl)-3-methyl-1,3-dihydro-imidazo[4,5-c]quinolin-2-one]",IC50,[1],41 nM
same,IC50,PI3K alpha,29 nM
same,IC50,[2],105 nM
same,solubility,Solubility at pH 6.8; pH 6.8,2 µg/mL
"CCOc1ccc(-c2ccc3ncc4c(c3c2)n(-c2ccnn2CC)c(=O)n4C)cn1 [Example 3.4, 8-(6-Ethoxy-pyridin-3-yl)-1-(2-ethyl-2H-pyrazol-3-yl)-3-methyl-1,3-dihydro-imidazo[4,5-c]quinolin-2-one]",IC50,[1],248 nM
same,IC50,PI3K alpha,217 nM
same,IC50,[2],418 nM
same,solubility,Solubility at pH 6.8; pH 6.8,2 µg/mL
"CCOc1ccc(-c2ccc3ncc4c(c3c2)n(-c2cn(CC)nc2C)c(=O)n4C)cn1 [Example 3.5, 8-(6-Ethoxy-pyridin-3-yl)-1-(1-ethyl-3-methyl-1H-pyrazol-4-yl)-3-methyl-1,3-dihydro-imidazo[4,5-c]quinolin-2-one]",IC50,[1],29 nM
same,IC50,PI3K alpha,37 nM
same,IC50,[2],137 nM
same,solubility,Solubility at pH 6.8; [3],4 µg/mL
"CCOc1ccc(-c2ccc3ncc4c(c3c2)n(-c2cnn(C)c2C)c(=O)n4C)cn1 [Example 3.6, 1-(1,5-Dimethyl-1H-pyrazol-4-yl)-8-(6-ethoxy-pyridin-3-yl)-3-methyl-1,3-dihydro-imidazo[4,5-c]quinolin-2-one]",IC50,[1],119 nM
same,IC50,PI3K alpha,50 nM
same,IC50,[2],232 nM
same,solubility,Solubility at pH 6.8; pH 6.8,2 µg/mL
"Cc1nn(C(C)C)cc1-n1c(=O)n(C)c2cnc3ccc(-c4ccc(N(C)C)nc4)cc3c21 [Example 4.1, 8-(6-Dimethylamino-pyridin-3-yl)-1-(1-isopropyl-3-methyl-1H-pyrazol-4-yl)-3-methyl-1,3-dihydro-imidazo[4,5-c]quinolin-2-one]",IC50,[1],19 nM
same,IC50,PI3K alpha,60 nM
same,IC50,[2],59 nM
same,solubility,Solubility at pH 6.8; [3],336 µg/mL
"CCn1cc(-n2c(=O)n(C)c3cnc4ccc(-c5cnc(N(C)C)nc5)cc4c32)c(C)n1 [Example 6.4, 8-(2-Dimethylamino-pyrimidin-5-yl)-1-(1-ethyl-3-methyl-1H-pyrazol-4-yl)-3-methyl-1,3-dihydro-imidazo[4,5-c]quinolin-2-one]",IC50,[1],52 nM
same,IC50,PI3K alpha,60 nM
same,IC50,[2],62 nM
same,solubility,Solubility at pH 6.8; [3],36 µg/mL
"CNC(=O)c1ccc(-c2ccc3ncc4c(c3c2)n(-c2cn(C(C)C)nc2C)c(=O)n4C)cn1 [Example 15.3, 5-[1-(1-Isopropyl-3-methyl-1H-pyrazol-4-yl)-3-methyl-2-oxo-2,3-dihydro-1H-imidazo[4,5-c]quinolin-8-yl]-pyridine-2-carboxylic acid methylamide]",IC50,[1],21 nM
same,IC50,PI3K alpha,123 nM
same,IC50,[2],100 nM
same,solubility,Solubility at pH 6.8; [3],5 µg/mL
"Cc1nn(C)cc1-n1c(=O)n(C)c2cnc3ccc(-c4ccc(CO)nc4)cc3c21 [Example 16.2, 1-(1,3-Dimethyl-1H-pyrazol-4-yl)-8-(6-hydroxymethyl-pyridin-3-yl)-3-methyl-1,3-dihydro-imidazo[4,5-c]quinolin-2-one]",IC50,[1],70 nM
same,IC50,PI3K alpha,26 nM
same,IC50,[2],151 nM
same,solubility,Solubility at pH 6.8; [3],102 µg/mL
"COCCOc1ccc(-c2ccc3ncc4c(c3c2)n(-c2cn(C)nc2C)c(=O)n4C)cn1 [Example 18, 1-(1,3-Dimethyl-1H-pyrazol-4-yl)-8-[6-(2-methoxy-ethoxy)-pyridin-3-yl]-3-methyl-1,3-dihydro-imidazo[4,5-c]quinolin-2-one]",IC50,[1],231 nM
same,IC50,PI3K alpha,86 nM
same,IC50,[2],314 nM
same,solubility,Solubility at pH 6.8; [3],240 µg/mL
"CCOc1ccc(-c2ccc3ncc4c(c3c2)n(-c2cn(CC)nc2C)c(=O)n4C)cc1OCC [Example 27.1, 8-(3,4-Diethoxy-phenyl)-1-(1-ethyl-3-methyl-1H-pyrazol-4-yl)-3-methyl-1,3-dihydro-imidazo[4,5-c]quinolin-2-one]",IC50,[1],21 nM
same,IC50,PI3K alpha,8 nM
same,IC50,[2],56 nM
same,solubility,Solubility at pH 6.8; pH 6.8,2 µg/mL
"CCOc1cc(-c2ccc3ncc4c(c3c2)n(-c2cn(CC)nc2C)c(=O)n4C)ccc1OC [Example 28.1, 8-(3-Ethoxy-4-methoxy-phenyl)-1-(1-ethyl-3-methyl-1H-pyrazol-4-yl)-3-methyl-1,3-dihydro-imidazo[4,5-c]quinolin-2-one]",IC50,[1],29 nM
same,IC50,PI3K alpha,< 3 nM
same,IC50,[2],45 nM
same,solubility,Solubility at pH 6.8; [3],9 µg/mL
"CCOc1cc(-c2ccc3ncc4c(c3c2)n(-c2c(C)nn(C)c2C)c(=O)n4C)ccc1OC [Example 28.2, 8-(3-Ethoxy-4-methoxy-phenyl)-3-methyl-1-(1,3,5-trimethyl-1H-pyrazol-4-yl)-1,3-dihydro-imidazo[4,5-c]quinolin-2-one]",IC50,[1],125 nM
same,IC50,PI3K alpha,62 nM
same,IC50,[2],212 nM
same,solubility,Solubility at pH 6.8; [3],3 µg/mL
"CCOc1cc(-c2ccc3ncc4c(c3c2)n(-c2cn(C)nc2C)c(=O)n4C)ccc1OC [Example 28.3, 1-(1,3-Dimethyl-1H-pyrazo1-4-yl)-8-(3-ethoxy-4-methoxy-phenyl)-3-methyl-1,3-dihydro-imidazo[4,5-c]quinolin-2-one]",IC50,[1],15 nM
same,IC50,PI3K alpha,13 nM
same,IC50,[2],24 nM
same,solubility,Solubility at pH 6.8; pH 6.8,2 µg/mL
"CCOc1ccc(-c2ccc3ncc4c(c3c2)n(-c2cn(C)nc2C)c(=O)n4C)cc1OC [Example 29.3, 1-(1,3-Dimethyl-1H-pyrazol-4-yl)-8-(4-ethoxy-3-methoxy-phenyl)-3-methyl-1,3-dihydro-imidazo[4,5-c]quinolin-2-one]",IC50,[1],15 nM
same,IC50,PI3K alpha,11 nM
same,IC50,[2],38 nM
same,solubility,Solubility at pH 6.8; pH 6.8,2 µg/mL
"CCn1cc(-n2c(=O)n(C)c3cnc4ccc(-c5ccc(OCCOC)c(OC)c5)cc4c32)c(C)n1 [Example 30.2, 1-(1-Ethyl-3-methyl-1H-pyrazol-4-yl)-8-[3-methoxy-4-(2-methoxy-ethoxy)-phenyl]-3-methyl-1,3-dihydro-imidazo[4,5-c]quinolin-2-one]",IC50,[1],43 nM
same,IC50,PI3K alpha,30 nM
same,IC50,[2],155 nM
same,solubility,Solubility at pH 6.8; [3],9 µg/mL
"Cc1nn(C)cc1-n1c(=O)n(C)c2cnc3ccc(-c4cccc(O)c4)cc3c21 [Example 32.1, 1-(1,3-Dimethyl-1H-pyrazol-4-yl)-8-(3-hydroxy-phenyl)-3-methyl-1,3-dihydro-imidazo[4,5-c]quinolin-2-one]",IC50,[1],110 nM
same,IC50,PI3K alpha,7 nM
same,IC50,[2],193 nM
same,solubility,Solubility at pH 6.8; pH 6.8,2 µg/mL
"Cc1nn(C)cc1-n1c(=O)n(C)c2cnc3ccc(-c4cccc5c4OC(F)(F)O5)cc3c21 [Example 35, 8-(2,2-Difluoro-benzo[1,3]dioxol-4-yl)-1-(1,3-dimethyl-1H-pyrazol-4-yl)-3-methyl-1,3-dihydro-imidazo[4,5-c]quinolin-2-one]",IC50,[1],10 nM
same,IC50,PI3K alpha,5 nM
same,IC50,[2],22 nM
same,solubility,Solubility at pH 6.8; [3],3 µg/mL
"Cc1nn(C)cc1-n1c(=O)n(C)c2cnc3ccc(-c4ccccc4)cc3c21 [Example 37.1, 1-(1,3-Dimethyl-1H-pyrazol-4-yl)-3-methyl-8-phenyl-1,3-dihydro-imidazo[4,5-c]quinolin-2-one]",IC50,[1],135 nM
same,IC50,PI3K alpha,34 nM
same,IC50,[2],219 nM
same,solubility,Solubility at pH 6.8; [3],3 µg/mL
"Cc1nn(CC(=O)N(C)C)cc1-n1c(=O)n(C)c2cnc3ccc(-c4ccccc4)cc3c21 [Example 37.3, N,N-Dimethyl-2-[3-methyl-4-(3-methyl-2-oxo-8-phenyl-2,3-dihydro-imidazo[4,5-c]quinolin-1-yl)-pyrazol-1-yl]-acetamide]",IC50,[1],235 nM
same,IC50,PI3K alpha,71 nM
same,IC50,[2],362 nM
same,solubility,Solubility at pH 6.8; [3],41 µg/mL
"Cc1nn(C)cc1-n1c(=O)n(C)c2cnc3ccc(-c4cccc(S(C)(=O)=O)c4)cc3c21 [Example 40, 1-(1,3-Dimethyl-1H-pyrazol-4-yl)-8-(3-methanesulfonyl-phenyl)-3-methyl-1,3-dihydro-imidazo[4,5-c]quinolin-2-one]",IC50,[1],65 nM
same,IC50,PI3K alpha,20 nM
same,IC50,[2],138 nM
same,solubility,Solubility at pH 6.8; pH 6.8,2 µg/mL
"Cc1nn(CC(=O)N(C)C)c(C)c1-n1c(=O)n(C)c2cnc3ccc(-c4cncc(OC5CCC5)c4)cc3c21 [Example 60.2, 2-{4-[8-(5-Cyclobutoxy-pyridin-3-yl)-3-methyl-2-oxo-2,3-dihydro-imidazo[4,5-c]quinolin-1-yl]-3,5-dimethyl-pyrazol-1-yl}-N,N-dimethyl-acetamide]",IC50,PI3K alpha,315 nM
same,solubility,Solubility at pH 6.8; [3],76 µg/mL
